Test results as given in patent publication US20260285866A1, “MODULATORS OF TRPML, THEIR COMPOSITIONS AND METHODS OF USE” (Caraway Therapeutics, Inc., priority 2024, published 2026).

Assays:
Format in all cases: cell-based
Human TRPML2 = target: T1, Human TRPML2 (Homo sapiens, UniProt Q8IZK6); assay: Fluorescent TRPML2 assay (as for TRPML1); conditions: fluorescent calcium assay as for TRPML1, TRPML2 subtype
T1 construct: expressed in transfected cells
T1 sequence (Q8IZK6 1-566): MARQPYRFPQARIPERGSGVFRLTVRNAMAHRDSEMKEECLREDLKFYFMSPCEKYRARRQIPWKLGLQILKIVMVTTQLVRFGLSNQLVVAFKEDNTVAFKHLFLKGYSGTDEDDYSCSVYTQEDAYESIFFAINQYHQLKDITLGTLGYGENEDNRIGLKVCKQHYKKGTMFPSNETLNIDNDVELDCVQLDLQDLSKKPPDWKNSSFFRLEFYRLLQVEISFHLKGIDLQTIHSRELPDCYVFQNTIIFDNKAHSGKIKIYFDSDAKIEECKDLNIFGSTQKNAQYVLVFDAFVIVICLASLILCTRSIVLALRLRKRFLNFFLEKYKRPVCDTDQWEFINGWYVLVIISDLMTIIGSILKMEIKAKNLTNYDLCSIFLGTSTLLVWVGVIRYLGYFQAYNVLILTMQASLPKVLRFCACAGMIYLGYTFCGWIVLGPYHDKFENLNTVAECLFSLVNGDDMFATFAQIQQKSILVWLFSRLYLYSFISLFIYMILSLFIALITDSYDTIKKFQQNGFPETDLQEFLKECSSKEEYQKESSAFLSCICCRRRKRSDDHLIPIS
Procedure: (§1) HEK-293 Trex cells were stably transfected with a construct consisting of the human coding sequence for TRPML1 cloned into the tet-inducible plasmid pCDNA5 T/O. Mutations were introduced into the TRPML1 sequence to facilitate expression on the cell surface (Silvia Vergarajauregui, Rosa Puertollano Traffic. 2006 March; 7(3): 337-353). Briefly, the cells are cultured in 150 mm round tissue culture dishes containing 20 mL of media. The day before the assay the cells are rinsed with DPBS-Ca-Mg and then treated briefly with Trypsin-EDTA. The Trypsin-EDTA is diluted with growth media, and cells are counted. 38×10^6 cells are re-plated into 150 mm round tissue culture dishes in media containing 0.5 μg/mL doxycycline to induce expression of hTRPML1.
(§2) The day of the experiment cells are lifted from the plates as above and collected by centrifugation. The cells are then suspended in dye loading buffer consisting of Ringer's solution supplemented with 0.1% Pluronic Acid and 1 micromolar Fluo4-AM dye. Cells are loaded for ~60 minutes in the dark with occasional mixing. The cells are collected by centrifugation, the loading media aspirated, and the cells resuspended in 25 mL Ringer's solution and incubated ~60 minutes in the dark. The cells are again collected by centrifugation, rinsed in Ringer's Solution and resuspended to 0.2×10^6 cells/mL in modified Ringer's solution containing 10 mM calcium.
(§3) Compounds are dissolved to a concentration of 10 millimolar with DMSO. Compound plates are created by dispensing compounds into 384 well black wall clear bottom plates (Greiner 781091). Positive and negative controls are included on each plate. Typically, different amounts of each compound are tested ranging from 100 nanoMoles (20 micromolar final concentration) decreasing in half-log steps to 31 picoMoles (6 nanomolar final concentration). Each concentration is typically tested in triplicate.
(§4) 50 microliters of dye-loaded cells are dispensed into each well of the compound assay plate created above. The fluorescence in each well is then determined with an excitation wavelength of 480 nm and an emission wavelength of 540 nm using either a Molecular Devices SpectraMax multimode plate reader or a Hamamatsu FDSS/uCell plate imager.
(§5) The resulting fluorescence for each well is exported as an ascii file and loaded into our LIMS for analysis. The percent activity of each compound at each concentration is determined by comparison to the positive and negative control wells included in each plate.
(§6) Assays for TRPML2 and TRPML3 were performed as above for TRPML1, by substituting the appropriate TRPML2 or TRPML3 subtype for the TRPML1.
(§7) EC50 values were calculated using a non-linear regression of Prism. In the table, “A” indicates an EC50 of less than 100 nM, “B” indicates an EC50 range from 100 nM to 500 nM: “C” indicates an EC50 range from 500 nM to 2 μM; and “D” indicates an EC50 greater than 2 μM.

Human TRPML1 = Human TRPML1 (Homo sapiens, UniProt Q9GZU1, L15A/L16A/L577A/L578A); assay: Fluorescent TRPML1 assay (Fluo4-AM, HEK-293 Trex cells expressing hTRPML1); conditions: fluorescent calcium assay, doxycycline-induced hTRPML1
Chain of Human TRPML1 (Q9GZU1 whole entry L15A/L16A/L577A/L578A): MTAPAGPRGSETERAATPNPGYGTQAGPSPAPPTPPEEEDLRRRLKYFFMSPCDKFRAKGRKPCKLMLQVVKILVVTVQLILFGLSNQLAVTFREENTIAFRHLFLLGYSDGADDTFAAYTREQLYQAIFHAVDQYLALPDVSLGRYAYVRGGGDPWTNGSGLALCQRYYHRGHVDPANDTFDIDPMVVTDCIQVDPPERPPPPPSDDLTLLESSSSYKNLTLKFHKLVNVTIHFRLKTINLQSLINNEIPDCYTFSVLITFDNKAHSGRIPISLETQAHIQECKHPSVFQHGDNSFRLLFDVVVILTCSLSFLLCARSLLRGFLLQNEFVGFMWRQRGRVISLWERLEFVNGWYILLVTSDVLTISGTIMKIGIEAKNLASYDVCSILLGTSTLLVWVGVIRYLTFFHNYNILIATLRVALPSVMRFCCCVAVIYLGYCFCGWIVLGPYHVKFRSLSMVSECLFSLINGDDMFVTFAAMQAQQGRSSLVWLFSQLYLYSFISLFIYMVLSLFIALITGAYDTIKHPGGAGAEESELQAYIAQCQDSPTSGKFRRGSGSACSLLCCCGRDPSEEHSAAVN
Procedure: Example 27. Fluorescent TRPML Assays
as §1, §2, §3, §4, §5, §7

Human TRPML3 = target: T2, Human TRPML3 (Homo sapiens, UniProt Q8TDD5); assay: Fluorescent TRPML3 assay (as for TRPML1); conditions: fluorescent calcium assay as for TRPML1, TRPML3 subtype
T2 construct: expressed in transfected cells
T2 sequence (Q8TDD5 1-553): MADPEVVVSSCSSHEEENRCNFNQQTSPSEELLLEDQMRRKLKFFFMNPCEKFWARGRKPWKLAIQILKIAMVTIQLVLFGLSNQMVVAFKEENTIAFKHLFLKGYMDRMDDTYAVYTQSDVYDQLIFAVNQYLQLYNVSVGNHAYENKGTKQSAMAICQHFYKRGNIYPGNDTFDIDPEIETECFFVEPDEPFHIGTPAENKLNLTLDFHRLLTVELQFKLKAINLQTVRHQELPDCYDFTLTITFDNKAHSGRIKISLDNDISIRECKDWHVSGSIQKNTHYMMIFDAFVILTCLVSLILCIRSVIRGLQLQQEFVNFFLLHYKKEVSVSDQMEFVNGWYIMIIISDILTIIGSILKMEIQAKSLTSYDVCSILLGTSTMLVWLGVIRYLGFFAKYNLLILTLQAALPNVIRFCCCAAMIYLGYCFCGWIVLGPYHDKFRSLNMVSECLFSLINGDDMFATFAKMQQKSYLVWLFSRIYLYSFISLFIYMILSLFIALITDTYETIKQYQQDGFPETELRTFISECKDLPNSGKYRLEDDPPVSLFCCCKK
Procedure: as §1, §2, §3, §4, §5, §6, §7

EC50 (Human TRPML2)	EC50 (Human TRPML1)	EC50 (Human TRPML3)	SMILES
500 to 2000 nM	< 100 nM	100 to 500 nM	CCC(O)(CC)C(=O)N1C[C@H](C)N(c2ncnc3c2c(-c2ccccc2)cn3-c2cc(C#N)ccn2)C[C@H]1C [Compound 108, 2-(4-((2S,5R)-4-(2-ethyl-2-hydroxybutanoyl)-2,5-dimethylpiperazin-1-yl)-5-phenyl-7H-pyrrolo[2,3-d]pyrimidin-7-yl)isonicotinonitrile]
> 2000 nM	< 100 nM	100 to 500 nM	C[C@@H]1CN(c2ncnc3c2c(-c2ccccc2)cn3-c2cc(C#N)ccn2)[C@@H](C)CN1C(=O)C(O)(C(F)(F)F)C(F)(F)F [Compound 110, 2-(4-((2S,5R)-2,5-dimethyl-4-(3,3,3-trifluoro-2-hydroxy-2-(trifluoromethyl)propanoyl)piperazin-1-yl)-5-phenyl-7H-pyrrolo[2,3-d]pyrimidin-7-yl)isonicotinonitrile]
> 2000 nM	100 to 500 nM	500 to 2000 nM	C[C@@H]1CN(c2ncnc3c2c(-c2ccccc2)cn3-c2cc(C#N)ccn2)[C@@H](C)CN1C(=O)C1(O)COC1 [Compound 120, 2-(4-((2S,5R)-4-(3-hydroxyoxetane-3-carbonyl)-2,5-dimethylpiperazin-1-yl)-5-phenyl-7H-pyrrolo[2,3-d]pyrimidin-7-yl)isonicotinonitrile]
500 to 2000 nM	< 100 nM	< 100 nM	C[C@@H]1CN(c2ncnc3c2c(-c2ccccc2F)cn3-c2cc(C#N)ccn2)[C@@H](C)CN1C(=O)C1(O)CCCC1 [Compound 121, 2-(5-(2-fluorophenyl)-4-((2S,5R)-4-(1-hydroxycyclopentane-1-carbonyl)-2,5-dimethylpiperazin-1-yl)-7H-pyrrolo[2,3-d]pyrimidin-7-yl)isonicotinonitrile]
500 to 2000 nM	< 100 nM	< 100 nM	C[C@@H]1CN(c2ncnc3c2c(-c2ccccc2F)cn3-c2cc(C#N)ccn2)[C@@H](C)CN1C(=O)C1(O)CCCCC1 [Compound 122, 2-(5-(2-fluorophenyl)-4-((2S,5R)-4-(1-hydroxycyclohexane-1-carbonyl)-2,5-dimethylpiperazin-1-yl)-7H-pyrrolo[2,3-d]pyrimidin-7-yl)isonicotinonitrile]
> 2000 nM	100 to 500 nM	500 to 2000 nM	C[C@@H]1CN(c2ncnc3c2c(-c2ccncc2)cn3-c2cc(C#N)ccn2)[C@@H](C)CN1C(=O)C(C)(C)O [Compound 125, 2-(4-((2S,5R)-4-(2-hydroxy-2-methylpropanoyl)-2,5-dimethylpiperazin-1-yl)-5-(pyridin-4-yl)-7H-pyrrolo[2,3-d]pyrimidin-7-yl)isonicotinonitrile]
> 2000 nM	< 100 nM	100 to 500 nM	CC[C@H]1CN(C(=O)C(C)(C)O)[C@H](C)CN1c1ncnc2c1c(-c1ccccc1)cn2-c1cc(C#N)ccn1 [Compound 129, 2-(4-((2S,5R)-2-ethyl-4-(2-hydroxy-2-methylpropanoyl)-5-methylpiperazin-1-yl)-5-phenyl-7H-pyrrolo[2,3-d]pyrimidin-7-yl)isonicotinonitrile]
> 2000 nM	500 to 2000 nM	500 to 2000 nM	C[C@@H]1CN(c2ncnc3c2c(-n2cccn2)cn3-c2cc(C#N)ccn2)[C@@H](C)CN1C(=O)C(C)(C)O [Compound 133, 2-(4-((2S,5R)-4-(2-hydroxy-2-methylpropanoyl)-2,5-dimethylpiperazin-1-yl)-5-(1H-pyrazol-1-yl)-7H-pyrrolo[2,3-d]pyrimidin-7-yl)isonicotinonitrile]
–	500 to 2000 nM	500 to 2000 nM	C[C@@H]1CN(c2ncnc3c2c(-c2ccns2)cn3-c2cc(C#N)ccn2)[C@@H](C)CN1C(=O)C(C)(C)O [Compound 153, 2-(4-((2S,5R)-4-(2-hydroxy-2-methylpropanoyl)-2,5-dimethylpiperazin-1-yl)-5-(isothiazol-5-yl)-7H-pyrrolo[2,3-d]pyrimidin-7-yl)isonicotinonitrile]
–	500 to 2000 nM	> 2000 nM	C[C@@H]1CN(c2ncnc3c2c(-c2ccccc2)cn3-c2cc(C#N)ccn2)[C@@H](C)CN1C(=O)C1(O)CC1 [Compound 156, 2-(4-((2S,5R)-4-(1-hydroxycyclopropane-1-carbonyl)-2,5-dimethylpiperazin-1-yl)-5-phenyl-7H-pyrrolo[2,3-d]pyrimidin-7-yl)isonicotinonitrile]
–	> 2000 nM	> 2000 nM	C[C@@H]1CN(c2ncnc3c2c(-c2ccccc2F)cn3-c2cc(C#N)ccn2)[C@@H](C)CN1C(=O)C1(O)CC1 [Compound 157, 2-(5-(2-fluorophenyl)-4-((2S,5R)-4-(1-hydroxycyclopropane-1-carbonyl)-2,5-dimethylpiperazin-1-yl)-7H-pyrrolo[2,3-d]pyrimidin-7-yl)isonicotinonitrile]
–	500 to 2000 nM	500 to 2000 nM	C[C@@H]1CN(c2ncnc3c2c(C2CC2)cn3-c2cc(C#N)ccn2)[C@@H](C)CN1C(=O)CC(C)(C)O [Compound 160, 2-(5-cyclopropyl-4-((2S,5R)-4-(3-hydroxy-3-methylbutanoyl)-2,5-dimethylpiperazin-1-yl)-7H-pyrrolo[2,3-d]pyrimidin-7-yl)isonicotinonitrile]
–	100 to 500 nM	500 to 2000 nM	C[C@@H]1CN(c2ncnc3c2c(-c2ccccc2F)cn3-c2cc(C#N)ccn2)[C@@H](C)CN1C(=O)C(C)(O)CO (stereo partly drawn) [Compound 167, 2-(4-((2S,5R)-4-(2,3-dihydroxy-2-methylpropanoyl)-2,5-dimethylpiperazin-1-yl)-5-(2-fluorophenyl)-7H-pyrrolo[2,3-d]pyrimidin-7-yl)isonicotinonitrile]
–	500 to 2000 nM	> 2000 nM	C[C@H]1CN(C(=O)C(C)(C)O)[C@H](CO)CN1c1ncnc2c1c(-c1ccccc1F)cn2-c1cc(C#N)ccn1 [Compound 168, 2-(5-(2-fluorophenyl)-4-((2S,5S)-4-(2-hydroxy-2-methylpropanoyl)-5-(hydroxymethyl)-2-methylpiperazin-1-yl)-7H-pyrrolo[2,3-d]pyrimidin-7-yl)isonicotinonitrile]
–	500 to 2000 nM	> 2000 nM	C[C@H]1CN(c2ncnc3c2c(-c2ccccc2F)cn3-c2cc(C#N)ccn2)[C@@H](C)CN1C(=O)C(C)(C)O [Compound 169, 2-(5-(2-fluorophenyl)-4-((2S,5S)-4-(2-hydroxy-2-methylpropanoyl)-2,5-dimethylpiperazin-1-yl)-7H-pyrrolo[2,3-d]pyrimidin-7-yl)isonicotinonitrile]
